What was measured:
Type in all cases: in vivo
[1] = tested on: Watermelon Seedlings (cv. Dixie Queen); test: Greenhouse trial: dry weight of seedlings; conditions: 1-triacontanol 0.1 mg/liter, pH 9.8; for Dry wt.: per 4 plants
Description: (§1) In general, greenhouse trials were conducted as follows: eight to twelve seeds were sown per pot in Peat-Lite® Mix and received an average of 100 ml of water per day. After plants had the third true leaf (average), the various formulations were applied to the leaves as a fine mist at air temperatures listed in Table 1. Temperatures above 20° C., preferably 25°-30° C., are preferred.
(§2) The 1-triacontanol formulation most generally used consisted of a concentrate containing 5 mg of 1-triacontanol dissolved in 1 liter of acetone, with 20 ml of the concentrate being further dissolved to 1 liter with water having a pH between 8 and 10, with over a pH of 11 also being effective. The pH was adjusted with aqueous NaOH and the concentrate added just prior to spraying.
(§3) When other plant growth substances were added to the formulations, these were added either to the concentrate in the polar organic solvent or alternatively in the aqueous solution, depending on the solubility of the plant growth substance. All metal salts were added to the water used to spray the 1-triacontanol formulations. After spraying, preferably about four to nine days or more, plants were harvested with roots, and fresh weights were obtained. Plants were then dried in an oven, preferably at a temperature below 100° C., until constant weight was obtained, and dry weight values were obtained for each plot. Subtraction of the dry weights from the fresh weights gave the water uptake weights (water content) of each plot. The weights of the above mentioned seedlings were compared to the control weights to obtain the percent increases.
(§4) It is particularly advantageous to arrange each of the potted plants in size range categories corresponding to the number of replications used. For example, if five replications are employed, plants are divided into five size categories, normally measured by the height of the plants. Treatments are then assigned randomly within each block (size category). This removes the variation due to plant size for statistical purposes, as is well practiced in the art. The resulting data is analyzed using any appropriate means, which may include the least significant difference method (L.S.D. method), Duncan's multiple range test, as used here (Biometrics, 11: 1 (1955)), or other means.

[2] = tested on: Soybean Seedlings (cv. Prize); test: Greenhouse trial: dry weight of seedlings; conditions: for Dry wt.: per four plants per plot
Description: as §1, §2, §3, §4

[3] = tested on: Winter Wheat Seedlings (cv. Augusta); test: Greenhouse trial: dry weight of seedlings; conditions: triacontanol 0.1 mg/l, pH 9.0
Description: as §1, §2, §3, §4

[4] = tested on: Sweet Corn (cv. Silver Queen, Early Sunglow, Jubilee); test: Field trial: crop yield and seed size; conditions: for Percent increase in marketable yield: triacontanol 0.25 mg/l
Description: (§5) Field trials were conducted in Northern Virginia on plots that were replicated at least five items. Plots consisted of single rows of plants in blocks of three or more plots, with treatments being assigned randomly within each block.
(§6) Plants were fertilized with the fertilizers described in Table 1, and sprayed at air temperatures listed in the same Table. Spraying was usually avoided under windy conditions to avoid drift.

[5] = tested on: Beans (cv. Blue Lakes Stringless, Early Bird); test: Field trial: crop yield and seed size; conditions: 100 seeds, CaCl2 5 mM, no IAA, 1-triacontanol 0.25 mg/liter
Description: as §5, §6

[6] = tested on: Field Corn Seedlings (cv. Trojan TXS 94, Pioneer 3780, WF9 X Bear 38); test: Greenhouse trial: dry weight and water uptake of seedlings after foliar spraying; conditions: cv. Trojan TXS 94, no metal salt, 1-triacontanol 0.1 mg/liter
Description: as §1, §2, §3, §4

[7] = tested on: Hybrid Sweet Corn Seedlings (cv. Silver Queen); test: as above
Description: as §1, §2, §3, §4

[8] = tested on: Field Corn (cv. Trojan TXS 94); test: Field trial: crop yield and seed size; conditions: 1-triacontanol 0.25 mg/liter; for % increase (wt. of seed) / % increase (wt./15 ears) / Wt. of seed / Wt./15 ears: TRIACON-10, pH 10.4; for Percent increases (size of seeds) / Wt. of treated seed: cv. Trojan TXS 94, 1000 seeds; for Wt. of treated seed: control seed 252
Description: as §5
Plants were fertilized with the fertilizers described in Table 1, and sprayed at air temperatures listed in the same Table. Spraying was usually avoided under windy conditions to avoid drift. In the examples set forth herein, data were treated in a similar manner to those found in the greenhouse trials, with analysis of variance performed for each trial, and the use of a suitable statistical method for the analysis of results, preferably Duncan's multiple range test.

[9] = CaCl2 5 mM, 1-triacontanol 0.1 mg/liter
[10] = CaCl2 10 mM, 1-triacontanol 0.1 mg/liter
[11] = CaCl2 20 mM, 1-triacontanol 0.1 mg/liter
[12] = CaCl2 50 mM, NAA 1.5 μM (Formulation 7)
[13] = 14-day old seedlings, 1-triacontanol 0.1 mg/liter alone, no plant growth substance (Formulation 2)
[14] = 14-day old seedlings, metal ion 9 mM (none in the last line) with 1-triacontanol 0.1 mg/liter, pH 8 to 10, Formulation 4
[15] = Formulation 4, 1-triacontanol 0.5 mg/liter, 10 mM CaCl2, pH 8.1, test seed first generation (sprayed) vs control first (not sprayed)
[16] = Formulation 4, 1-triacontanol 0.5 mg/liter, 10 mM CaCl2, pH 8.1, test seed second generation (first and second sprayed) vs control second (first and second not sprayed)
[17] = Formulation 4, 1-triacontanol 0.5 mg/liter, 10 mM CaCl2, pH 8.1, test seed second generation (first and second sprayed) vs control second (second was sprayed only)
[18] = Formulation 4, 1-triacontanol 0.5 mg/liter, 10 mM CaCl2, pH 8.1, test seed second generation (first was sprayed only) vs control second (first and second not sprayed)

Compound: CCCCCCCCCCCCCCCCCCCCCCCCCCCCCCO [1-Triacontanol, 1-triacontanol]
- Percent increases (dry weight) ([1]; CaCl2 5 mM, no IAA): +38%
- Dry wt. ([1]; CaCl2 5 mM, no IAA, sprayed Day 36, harvested Day 45, control 0.61 g): 0.84 gm
- Percent increases (dry weight) ([1]; CaCl2 10 mM, no IAA): +48%
- Dry wt. ([1]; CaCl2 10 mM, no IAA): 0.90 gm
- Percent increases (dry weight) ([1]; CaCl2 50 mM, IAA 10 μM): +65%
- Dry wt. ([1]; CaCl2 50 mM, IAA 10 μM): 1.01 gm
- Dry wt. ([2]; CaCl2 3 mM as printed, 1-triacontanol 0.1 mg/liter): 1.96 g
- Increase (dry weight) [2, 9]: +17%
- Dry wt. [2, 9]: 2.30 g
- Increase (dry weight) [2, 10]: +37%
- Dry wt. [2, 10]: 2.68 g
- Increase (dry weight) [2, 11]: +35%
- Dry wt. [2, 11]: 2.65 g
- Increase (dry weight) ([2]; line printed as "Control" but with an increase): +7%
- Increase (dry weight) ([3]; CaCl2 0 mM, no NAA): 0%
- Dry wt. ([3]; CaCl2 0 mM, no NAA, average sum of four plants per plot, control 0.513 g): 0.520 g
- Dry wt. ([3]; CaCl2 5 mM, no NAA): 0.502 g
- Increase (dry weight) ([3]; CaCl2 5 mM, no NAA): -2%
- Dry wt. ([3]; CaCl2 10 mM, no NAA): 0.682 g
- Increase (dry weight) ([3]; CaCl2 10 mM, no NAA): +33%
- Dry wt. ([3]; CaCl2 15 mM, no NAA): 0.616 g
- Increase (dry weight) ([3]; CaCl2 15 mM, no NAA): +20%
- Dry wt. ([3]; CaCl2 20 mM, no NAA): 0.682 g
- Increase (dry weight) ([3]; CaCl2 20 mM, no NAA): +33%
- Dry wt. ([3]; CaCl2 25 mM, no NAA): 0.708 g
- Increase (dry weight) ([3]; CaCl2 25 mM, no NAA): +38%
- Dry wt. [3, 12]: 0.872 g
- Increase (dry weight) [3, 12]: +70%
- Percent increase in marketable yield ([4]; cv. Early Sunglow, CaCl2 10 mM, no IAA, pH 9.8): +47%
- Percent increase in marketable yield ([4]; cv. Early Sunglow, CaCl2 50 mM, IAA 10 μM, pH 9.8): +20%
- Percent increase in marketable yield ([4]; cv. Jubilee, CaCl2 10 mM, no IAA, pH 9.7): +44%
- Percent increase in marketable yield ([4]; cv. Jubilee, CaCl2 50 mM, IAA 10 μM, pH 9.7): +31%
- Percent increases (size of seeds) ([4]; cv. Silver Queen, 500 seeds, CaCl2 9 mM, no IAA, 1-triacontanol 0.25 mg/liter): +47%
- Wt. of treated seed ([4]; cv. Silver Queen, 500 seeds, CaCl2 9 mM, no IAA, 1-triacontanol 0.25 mg/liter, control seed 29.7 g): 43.8 g
- Percent increase in marketable yield ([4]; cv. Silver Queen, CaCl2 10 mM, no IAA, pH 10.4): +49%
- Percent increase in marketable yield ([4]; cv. Silver Queen, CaCl2 50 mM, IAA 10 μM, pH 10.4): +16%
- Increases (field trial data for the previous year) ([4]; cv. Silver Queen, previous year, three out of three trials): 51-54%
- Percent increases (size of seeds) [5]: +54%
- Wt. of treated seed ([5]; control seed 18.1): 27.8 g
- Dry wt. increase ([6]; Formulation 4): -3%
- Dry wt. increase ([6]; Formulation 11): -8%
- Increase in dry weight ([7]; 1-triacontanol 0.1 mg/liter, Formulation 4, additive 9 mM (none in the last line)): +21%
- Increases, H2O uptake [7, 13]: +16%
- Increases, dry wt. [7, 13]: +20%
- % increase (dry weight) [7, 14]: +21%
- % increase (water uptake) [7, 14]: +16%
- Dry weight ([7]; 14-day old seedlings, metal ion 9 mM (none in the last line) with 1-triacontanol 0.1 mg/liter, pH 8 to 10, Formulation 4, control 0.86 g): 1.04 g
- Water uptake ([7]; 14-day old seedlings, metal ion 9 mM (none in the last line) with 1-triacontanol 0.1 mg/liter, pH 8 to 10, Formulation 4, control 8.7 g): 10.1 g
- Increases, H2O uptake ([7]; 14-day old seedlings, no metal salt, 1-triacontanol 0.1 mg/liter, Formulation 1 as printed): +16%
- Increases, H2O uptake [7, 15]: +41%
- Increases, dry wt. [7, 15]: +44%
- Increases, H2O uptake [7, 16]: +78%
- Increases, dry wt. [7, 16]: +80%
- Increases, H2O uptake [7, 17]: +46%
- Increases, dry wt. [7, 17]: +41%
- Increases, H2O uptake [7, 18]: +40%
- Increases, dry wt. [7, 18]: +44%
- Increases, dry wt. ([7]; foliar, 0.1 ug/mL): +20%
- % increase (wt. of seed) ([8]; CaCl2 1 mM, no IAA): +27%
- % increase (wt./15 ears) ([8]; CaCl2 1 mM, no IAA): +33%
- Wt. of seed ([8]; CaCl2 1 mM, no IAA, control 1740 g): 2211 g
- Wt./15 ears ([8]; CaCl2 1 mM, no IAA, control 1777 g): 2356 g
- % increase (wt. of seed) ([8]; CaCl2 3 mM, IAA 0.01 mM): +34%
- % increase (wt./15 ears) ([8]; CaCl2 3 mM, IAA 0.01 mM): +46%
- Wt. of seed ([8]; CaCl2 3 mM, IAA 0.01 mM): 2342 g
- Wt./15 ears ([8]; CaCl2 3 mM, IAA 0.01 mM): 2950 g
- Percent increases (size of seeds) ([8]; CaCl2 1 mM, no IAA): +18%
- Wt. of treated seed ([8]; CaCl2 1 mM, no IAA): 297 g
- Percent increases (size of seeds) ([8]; CaCl2 3 mM, IAA 0.01 mM): +27%
- Wt. of treated seed ([8]; CaCl2 3 mM, IAA 0.01 mM): 319 g
